# Experiments:
# α-amylase = target: T1, α-amylase (Sus scrofa, UniProt P00690); settings: compared to caffeic and chlorogenic acids (Narita et al. 2009); cited from earlier work
# T1 sequence (P00690 16-511): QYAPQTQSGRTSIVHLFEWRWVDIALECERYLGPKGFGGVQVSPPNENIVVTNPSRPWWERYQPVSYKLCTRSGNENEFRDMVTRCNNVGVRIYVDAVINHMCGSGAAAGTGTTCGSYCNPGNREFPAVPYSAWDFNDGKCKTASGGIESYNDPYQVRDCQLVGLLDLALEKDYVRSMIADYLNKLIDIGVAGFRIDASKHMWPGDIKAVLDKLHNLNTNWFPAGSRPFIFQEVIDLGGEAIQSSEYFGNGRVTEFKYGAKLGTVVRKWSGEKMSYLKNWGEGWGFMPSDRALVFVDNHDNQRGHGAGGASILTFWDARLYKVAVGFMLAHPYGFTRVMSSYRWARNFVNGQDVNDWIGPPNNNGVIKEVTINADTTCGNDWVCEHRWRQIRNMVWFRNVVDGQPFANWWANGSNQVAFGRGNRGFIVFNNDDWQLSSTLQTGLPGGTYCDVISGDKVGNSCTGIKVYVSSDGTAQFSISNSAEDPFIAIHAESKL
# sucrase = sucrase (Homo sapiens, UniProt P14410); settings: enzyme involved in digestion of carbohydrates; cited from earlier work
# [1] = Treadmill endurance, increasing speed protocol; assay type: in vivo; settings: 26 week-old high-fat fed mice, 25 mg/(kg*day), FIG. 11
# Procedure: 26 week-old mice were place on a treadmill and endurance was evaluated by using a increasing speed protocol, as described previously (Lagouge et al., 2006, PMID: 17112576). The tests were performed on low and high fat-fed mice supplemented with either water (Veh) or Quinic Acid (25 mg/(kg*day).
# [2] = Glucose excursion after intraperitoneal insulin (insulin response); assay type: in vivo, mice; settings: 6 hr fast, 25 mg/(kg*day)
# Procedure: Glucose excursion curves were determined after an intraperitoneal injection of insulin (0.3 U/Kg) after a 6 hr fast on 22 week-old mice fed a chow diet, supplemented with either water (Veh) or Quinic Acid (25 mg/(kg*day). Glucose excursion curves were determined after an intraperitoneal injection of insulin (0.75 U/Kg) after a 6 hr fast on 22 week-old mice fed a high-fat diet, supplemented with either water (Veh) or Quinic Acid (25 mg/(kg*day).
# [3] = Glucose excursion after intraperitoneal glucose (glucose tolerance); assay type: in vivo; settings: 12 hr fasted 20 week-old mice on chow diet or HFD, 25 mg/(kg*day), i.p. glucose 2 g/kg, FIG. 7
# Procedure: Glucose excursion curves were determined after an intraperitoneal injection of glucose (2 g/kg) on 12 hr fasted 20 week-old mice fed a chow diet or a HFD, supplemented with either water (Veh) or Quinic Acid (25 mg/(kg*day).
# lipase = settings: enzyme involved in digestion of lipids; cited from earlier work
# [4] = Oxygen consumption and RER in CLAMS (indirect calorimetry); assay type: in vivo; settings: 18 week-old mice on chow diet, 25 mg/(kg*day), dark phase, FIG. 6
# [5] = Body weight evolution on chow or high-fat diet; assay type: in vivo, mice; settings: 25 mg/(kg*day), FIG. 3
# Procedure: Body weight evolution on mice fed on chow diet or high-fat diet, supplemented with either water (Veh) or Quinic Acid (25 mg/(kg*day) was calculated. At 10 weeks of age, 60 male mice were randomly distributed in 6 groups (n=10 per group) and provided the different diets: LFD (Control, Low Dose and High Dose) or HFD (Control, Low Dose and High Dose). Mice were maintained for 8 weeks on their corresponding diets before phenotyping took place. During this time, body weight and food intake was monitored weekly.
# [6] = Food intake (tolerance / food aversion) of mice on supplemented diet; assay type: in vivo
# Procedure: Mice were fed a low fat diet supplemented with either water (Veh) or quinic acid at low dose (25 mg/(kg*day)) or high dose (HD, 100 mg/(kg*day). Food intake was calculated between 12 and 18 weeks of age by weighing the food placed on the tray of the cage at the start of the week and the amount remaining 5 days later.
# Mice were fed a high fat diet (60% fat) supplemented with either water (Veh) or quinic acid at low dose (25 mg/(kg*day)) or high dose (HD, 100 mg/(kg*day). Calculations for food intake were made in the same manner as for mice on chow diet.
# Powder low fat diet (LFD; Research Diets Inc.; Ref: D12450J) was reconstituted into ˜20 gram pellets using 100 ml of water/kg of food. In addition to normal low fat diet pellets, two additional groups were made by adding quinic acid (QA) to the water used for reconstitution. A first group (low dose) was created, where 0.25 g of QA were added per Kg of food (this means, 0.25 grams per 100 ml of water). In a second group (high dose), 1 g of QA was added per Kg of food (this means, 1 gram per […] of water). […]
# At 10 weeks of age, 60 male mice were randomly distributed in 6 groups (n=10 per group) and provided the different diets: LFD (Control, Low Dose and High Dose) or HFD (Control, Low Dose and High Dose). […] During this time, body weight and food intake was monitored weekly.
# [7] = Rectal temperature in cold room (thermogenic function); assay type: in vivo; settings: 24-week old mice on chow diet, 25 mg/(kg*day), cold room 6° C., no food, measured every hour, FIG. 10
# Procedure: Rectal temperature was measured at 8 a.m. (t=0) on 24-week old mice fed a chow diet, supplemented with either water (Veh) or Quinic Acid (25 mg/(kg*day). Then, mice were placed on a cold room (6° C.), with no access to food, and rectal temperature was measured every hour.
# maltase = settings: enzyme involved in digestion of carbohydrates; cited from earlier work
# [8] = Body lean and fat mass composition by Echo-MRI; assay type: in vivo, mice; settings: 25 mg/(kg*day), FIG. 4
# Procedure: Body lean and fat mass composition of 18 week-old mice fed on chow diet or high-fat diet, supplemented with either water (Veh) or Quinic Acid (25 mg/(kg*day) was measured by nuclear magnetic resonance using an Echo-Magnetic Resonance Imaging (Echo-MRI) system (Echo Medical System LCC).
# Chain of sucrase (P14410 whole entry, species assumed): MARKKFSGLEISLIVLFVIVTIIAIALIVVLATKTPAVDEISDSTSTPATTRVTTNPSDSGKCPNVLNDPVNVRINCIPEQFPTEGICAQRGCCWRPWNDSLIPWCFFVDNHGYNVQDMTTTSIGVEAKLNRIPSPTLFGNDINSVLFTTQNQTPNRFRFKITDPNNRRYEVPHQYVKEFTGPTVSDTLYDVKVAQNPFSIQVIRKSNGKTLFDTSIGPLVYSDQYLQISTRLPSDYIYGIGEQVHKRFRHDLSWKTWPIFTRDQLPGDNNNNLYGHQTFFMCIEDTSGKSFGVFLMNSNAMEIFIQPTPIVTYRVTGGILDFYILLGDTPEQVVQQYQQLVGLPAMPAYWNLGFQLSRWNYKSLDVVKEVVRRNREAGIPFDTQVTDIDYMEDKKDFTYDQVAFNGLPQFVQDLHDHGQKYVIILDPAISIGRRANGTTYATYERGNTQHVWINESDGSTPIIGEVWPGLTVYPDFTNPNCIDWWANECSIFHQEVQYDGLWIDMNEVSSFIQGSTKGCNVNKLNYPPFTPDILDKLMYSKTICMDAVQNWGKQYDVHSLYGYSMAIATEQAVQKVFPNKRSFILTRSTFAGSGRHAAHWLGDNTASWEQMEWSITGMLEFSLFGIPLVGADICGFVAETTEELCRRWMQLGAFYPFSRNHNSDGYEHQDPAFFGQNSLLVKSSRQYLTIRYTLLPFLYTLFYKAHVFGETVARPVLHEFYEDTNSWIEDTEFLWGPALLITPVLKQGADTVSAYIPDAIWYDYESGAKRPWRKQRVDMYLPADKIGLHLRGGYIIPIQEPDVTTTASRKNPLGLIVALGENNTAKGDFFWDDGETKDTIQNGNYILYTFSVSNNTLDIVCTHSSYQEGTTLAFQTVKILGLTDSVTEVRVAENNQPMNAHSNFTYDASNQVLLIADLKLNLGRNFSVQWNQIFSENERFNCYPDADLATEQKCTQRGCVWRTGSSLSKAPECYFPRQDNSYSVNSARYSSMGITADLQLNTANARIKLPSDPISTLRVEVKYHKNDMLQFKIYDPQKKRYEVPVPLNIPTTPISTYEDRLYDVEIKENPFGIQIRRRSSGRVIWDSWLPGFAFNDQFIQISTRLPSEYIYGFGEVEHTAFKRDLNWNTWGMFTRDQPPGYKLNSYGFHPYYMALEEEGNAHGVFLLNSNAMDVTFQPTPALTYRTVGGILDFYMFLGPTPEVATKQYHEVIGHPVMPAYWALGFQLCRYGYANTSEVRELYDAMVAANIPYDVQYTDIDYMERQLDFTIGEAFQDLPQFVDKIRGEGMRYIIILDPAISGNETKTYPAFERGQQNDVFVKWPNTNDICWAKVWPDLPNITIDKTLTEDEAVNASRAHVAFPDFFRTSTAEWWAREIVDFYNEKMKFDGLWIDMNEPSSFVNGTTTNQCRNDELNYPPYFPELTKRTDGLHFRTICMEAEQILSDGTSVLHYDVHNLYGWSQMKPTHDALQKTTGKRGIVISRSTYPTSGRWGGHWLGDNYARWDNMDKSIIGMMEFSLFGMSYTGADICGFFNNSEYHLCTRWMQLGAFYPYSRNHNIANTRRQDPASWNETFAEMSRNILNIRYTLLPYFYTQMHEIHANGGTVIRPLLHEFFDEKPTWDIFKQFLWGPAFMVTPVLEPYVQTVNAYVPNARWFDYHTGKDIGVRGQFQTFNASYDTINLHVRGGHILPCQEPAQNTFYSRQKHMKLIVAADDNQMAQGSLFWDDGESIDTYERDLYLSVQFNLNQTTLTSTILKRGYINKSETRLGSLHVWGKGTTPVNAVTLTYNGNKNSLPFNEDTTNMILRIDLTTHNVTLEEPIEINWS
structure (smiles),measurement,setting,value
O=C(O)[C@]1(O)C[C@@H](O)[C@@H](O)[C@H](O)C1 [Quinic acid],inhibition of α-amylase,α-amylase,poor inhibitor
same,effect on sucrase,sucrase,no effect
same,endurance performance (treadmill),[1],potentiates endurance performance
same,insulin response,"[2]; 22 week-old chow-fed mice, i.p. insulin 0.3 U/Kg, FIG. 8",did not alter insulin response
same,basal glycemia,"[2]; 22 week-old high-fat fed mice, FIG. 9",lowered basal glycemia
same,insulin response,"[2]; 22 week-old high-fat fed mice, i.p. insulin 0.75 U/Kg, FIG. 9",did not significantly affect insulin response
same,glucose tolerance,[3],moderately enhanced glucose tolerance
same,effect on lipase,lipase,no effect
same,carbohydrate metabolism (total carbohydrate oxidation = 4.55*VO2-3.21*VCO2),[4],enhanced
same,energy consumption (oxygen consumption),[4],enhanced energy consumption
same,body weight gain,[5]; mice on high-fat diet,reduced weight gain
same,body weight gain,[5]; mice on low-fat (chow) diet,reduced weight gain
same,food aversion (food intake),"[6]; mice on chow (low fat) diet, high dose 100 mg/(kg*day), 12-18 weeks of age, FIG. 1",caused food aversion
same,food aversion (food intake),"[6]; mice on high fat diet (60% fat), low dose 25 or high dose 100 mg/(kg*day), FIG. 2",did not cause food aversion
same,thermogenic function (rectal temperature),[7],enhanced thermogenic function
same,effect on maltase,maltase,no effect
same,"fat deposition (fat mass, Echo-MRI)",[8]; 18 week-old mice on chow diet,reduced fat deposition
same,"fat deposition (fat mass, Echo-MRI)",[8]; 18 week-old mice on high-fat diet,reduced fat deposition

# — patent US20180042875A1, “COMPOUND USE IN PROMOTING ENERGY EXPENDITURE” (NESTEC S.A., priority 2015, published 2018)
